Reference: patent US20140220036A1, “METHODS FOR TREATING NEURODEGENERATIVE DISEASES AND FOR IDENTIFYING AGENTS USEFUL FOR TREATING NEURODEGENERATIVE DISEASES” (priority 2013, published 2014)

tested on: h-tau42-dependent transmitter block; test: Oral administration of agents to squid, then presynaptic h-tau42 injection and recording of synaptic transmission; type: in vivo, squid (Loligo paelli); settings: systemic administration of agent
Experimental: Squid received an oral dose of each agent effective for such inhibiting phosphorylation of the tau protein. At 24 hours after the first dose a second dose was given, and the electrophysiological experiments were performed 1 hour after the second feeding. It was determine that after 24 hours of the double administration, an effective concentration of each agent effective for such inhibiting phosphorylation of the tau protein was measured in the CNS of the gastrically intubated squid (n=10 squid). Synapses from the treated squid were microinjected at the presynaptic axon with h-tau42 (an approximate 80 nM final concentration h-tau42 (n=19), considering a 100× dilution factor. Pre- and post-synaptic potentials were recorded for 90 min.
The squid (Loligo paelli) stellate ganglia isolation from the mantle and the electrophysiological techniques used have been described previously (Llinás, et al., Proc. Natl. Acad. Sci. U.S.A. 1985; 82: 3035-3039). Two glass micropipette electrodes impaled the largest (most distal) presynaptic terminal digit at the synaptic junction site while the post-synaptic axon was impaled by one microelectrode at the junctional site. One of the pre-electrodes was used for pressure microinjection of h-tau42 and also supported voltage clamp current feedback, while the second monitored membrane potential. The total volume injected fluctuated between 0.1 and 1 pl. (Llinás, et al., Proc. Natl. Acad. Sci. U.S.A. 1985; 82: 3035-3039). The exact location of injection and the diffusion and steady-state distribution of the protein/fluorescent dye mix (0.001% dextran fluorescein) were monitored using a fluorescence microscope attached to a Hamamatsu camera system (Middlesex, N.J.). In all experiments a good correlation was observed between the localization of the fluorescence and the electrophysiological findings.
Following presynaptic and post-synaptic axon impalements and the determination of normal synaptic transmission (Llinás, et al., Proc. Natl. Acad. Sci. U.S.A. 1985; 82: 3035-3039; Llinás, et al. Proc. Natl. Acad. Sci. U.S.A. 1994; 91: 12990-12993; Lin, et al., Proc. Natl. Acad. Sci. U.S.A. 1990; 87: 8257-8261), the effect of human tau on synaptic release was evaluated by presynaptic microinjections administered under direct visualization using a fluorescent dye/protein mix, reaching a final concentration after diffusion of approximately 80 nM. (See, Materials and Methods) Presynaptic and post-synaptic potentials were recorded simultaneously under current-clamp configuration. Presynaptic spikes were activated every 5 minutes (low-frequency protocol). With this paradigm, it was determined that 5-10 minutes after an injection of h-tau42, a reduction of transmitter release could be observed. With further time, a total block of transmission resulted, within 30-40 minutes depending on the length of the release zone in the preterminal axon (see, e.g. FIG. 2). […] By contrast, following administration of each agent effective for such inhibiting phosphorylation of the tau protein to the squid (see bellow) h-tau42-dependent transmitter block was prevented (see, generally, Figures).

Row | Molecule | h-tau42 induced functional and biochemical abnormalities in the presynaptic axon
1 | Cn1cnc(N)c2ncnc1-2 [3-methyladenine] | prevented or ameliorated
2 | O=C1CN(/N=C/c2ccc(-c3ccc([N+](=O)[O-])cc3)o2)C(O)=N1 [Dantrolene] | prevented or ameliorated
3 | Cn1cc(C2=C(c3coc4ccccc34)C(=O)NC2=O)c2cc(Br)ccc21 [ING-135] | prevented or ameliorated
4 | [Cl-].[Li+] [LiCl] | prevented or ameliorated
5 | C[S+]([O-])c1ccc(-c2nc(-c3ccncc3)c(-c3ccc(F)cc3)[nH]2)cc1 (centres unmarked) [SB203580] | prevented or ameliorated
6 | Cn1cc(C2=C(c3ccc(Cl)cc3Cl)C(=O)NC2=O)c2ccccc21 [SB216763] | prevented or ameliorated
7 | Xitospongin C | prevented or ameliorated

tested on: fast axonal transport (FAT); test: not given; settings: Kanaan et al. 2011; squid axons; cited from earlier work

Row | Molecule | effect on inhibition of axonal transport by PAD peptide
8 | Cn1cc(C2=C(c3coc4ccccc34)C(=O)NC2=O)c2cc(Br)ccc21 [ING-135] | blocked
